# Like-named read-outs stand apart in the source and are kept apart here.
# How the values were obtained:
# [1] = system: Strep. agalactiae SPA1; experiment: MIC against veterinary bacteria in vitro (Diagnostic Sensitivity Test Agar); conditions: Streptococcus agalactiae, SPA1, 18 h
# Protocol: (§2) The activity of the normonyl derivatives of the Examples against various veterinarily important bacteria, was assayed in vitro using two-fold serial dilutions in Diagnostic Sensitivity Test Agar inoculated with 10^4 organisms.
# [2] = system: S. dublin S7; experiment: as above; conditions: Salmonella enterica, S7, 18 h
# Protocol: as §2
# [3] = system: M. hyopneumoniae J2206/183^b; experiment: MIC against Mycoplasma in vitro (Friis broth with agarose); assay type: cell-based; conditions: Mesomycoplasma hyopneumoniae, 144 h; M. hyopneumoniae J2206/183^b; 6 days at 37° C; read-out: MIC
# [4] = system: E. coli E1; experiment: MIC against veterinary bacteria in vitro (Diagnostic Sensitivity Test Agar); conditions: Escherichia coli, E1, 18 h
# Protocol: as §2
# [5] = system: Corynebacterium pyogenes CY1; experiment: as above; conditions: CY1, 18 h
# Protocol: as §2
# [6] = system: Bord. bronchiseptica B09; experiment: as above; conditions: Bordetella bronchiseptica, B09, 18 h
# Protocol: as §2
# [7] = system: Strep. uberis SPU1; experiment: as above; conditions: Streptococcus uberis, SPU1, 18 h
# Protocol: as §2
# [8] = system: M. hyopneumoniae ATCC 25095; experiment: MIC against Mycoplasma in vitro (Friis broth with agarose); assay type: cell-based; conditions: Mesomycoplasma hyopneumoniae, ATCC25095, 144 h; M. hyopneumoniae ATCC 25095; 6 days at 37° C; read-out: MIC
# [9] = system: Staph. aureus W2827; experiment: MIC against human bacteria in vitro (nutrient agar, chocolated horse blood); assay type: cell-based; conditions: Staphylococcus aureus; human; Staph. aureus W2827; 18 hours at 37° C; read-out: MIC
# Protocol: (§1) The activity of the normonyl derivaties of the Examples against various bacteria which are important in diseases of humans, was assayed in vitro using serial dilutions in nurient agar with 5% chocolated horse blood.
# [10] = system: Strep. agalactiae 2788-B; experiment: as above; assay type: cell-based; conditions: Streptococcus agalactiae
# Protocol: as §1
# [11] = system: Haemophilus influenzae Wy21; experiment: as above; assay type: cell-based; conditions: human; Haemophilus influenzae Wy21; 18 hours at 37° C; read-out: MIC
# Protocol: as §1
# [12] = system: Strep. pyogenes R80/421-A; experiment: as above; assay type: cell-based; conditions: Streptococcus pyogenes
# Protocol: as §1
# [13] = system: Bacillus subtilis 6633; experiment: as above; assay type: cell-based; conditions: human; Bacillus subtilis 6633; 18 hours at 37° C; read-out: MIC
# Protocol: as §1
# [14] = system: Strep. spp. 64/848-C; experiment: as above; assay type: cell-based; conditions: human; Strep. spp. 64/848-C; 18 hours at 37° C; read-out: MIC
# Protocol: as §1
# [15] = system: Pasteurella multocida 1633; experiment: as above; assay type: cell-based; conditions: human; Pasteurella multocida 1633; 18 hours at 37° C; read-out: MIC
# Protocol: as §1
# [16] = system: Ps. aeruginosa NCTC 10662; experiment: as above; assay type: cell-based; conditions: Pseudomonas aeruginosa
# Protocol: as §1
# [17] = system: Corynebacterium xerosis 9755; experiment: as above; assay type: cell-based
# Protocol: as §1
# [18] = system: K. aerogenes A; experiment: as above; assay type: cell-based; conditions: Klebsiella aerogenes
# Protocol: as §1
# [19] = system: P. mirabilis 889; experiment: as above; assay type: cell-based
# Protocol: as §1
# [20] = system: Sarcina lutea 8340; experiment: as above; assay type: cell-based
# Protocol: as §1
# [21] = system: Strep. faecalis I; experiment: as above; assay type: cell-based; conditions: Enterococcus faecalis
# Protocol: as §1
# [22] = system: Staph. aureus Russell; experiment: as above; assay type: cell-based; conditions: Staphylococcus aureus; human; Staph. aureus Russell; 18 hours at 37° C; read-out: MIC
# Protocol: as §1
# [23] = system: E. coli NCTC 10418; experiment: as above; assay type: cell-based; conditions: Escherichia coli
# Protocol: as §1
# [24] = system: Staph. aureus Oxford; experiment: as above; assay type: cell-based; conditions: Staphylococcus aureus; human; Staph. aureus Oxford; 18 hours at 37° C; read-out: MIC
# Protocol: as §1
# [25] = system: E. coli ESS; experiment: as above; assay type: cell-based; conditions: Escherichia coli; human; E. coli ESS; 18 hours at 37° C; read-out: MIC
# Protocol: as §1
# [26] = system: M. hyopneumoniae TAM 6N; experiment: MIC against Mycoplasma in vitro (Friis broth with agarose); assay type: cell-based; conditions: Mesomycoplasma hyopneumoniae, TAM6N, 144 h; M. hyopneumoniae TAM 6N; 6 days at 37° C; read-out: MIC
# [27] = system: Erysipelothrix rhusiopathiae NCTC 8163; experiment: MIC against veterinary bacteria in vitro (Diagnostic Sensitivity Test Agar); conditions: NCTC8163, 18 h
# Protocol: as §2
# [28] = system: M. hyopneumoniae NCTC 101101; experiment: MIC against Mycoplasma in vitro (Friis broth with agarose); assay type: cell-based; conditions: Mesomycoplasma hyopneumoniae, NCTC101101, 144 h
# [29] = system: M. hyopneumoniae UCD 1; experiment: as above; assay type: cell-based; conditions: Mesomycoplasma hyopneumoniae, UCD1, 144 h; M. hyopneumoniae UCD 1; 6 days at 37° C; read-out: MIC
# [30] = system: M. bovis NCTC 10131; experiment: microbe, parasite or virus in culture; assay type: cell-based; conditions: NCTC10131, 144 h
# [31] = system: M. hyosynoviae ATCC 25591; experiment: MIC against Mycoplasma in vitro (Friis broth with agarose); assay type: cell-based; conditions: 144 h; M. hyosynoviae ATCC 25591; 6 days at 37° C; read-out: MIC
# [32] = system: E. coli NCTC 10418; experiment: MIC against veterinary bacteria in vitro (Diagnostic Sensitivity Test Agar); conditions: Escherichia coli, NCTC10418, 18 h
# Protocol: as §2
# [33] = system: Staph. aureus 152 (pen. sens); experiment: as above; conditions: Staphylococcus aureus, 18 h
# Protocol: as §2
# [34] = M. hyopneumoniae NCTC 101101, 6 days at 37° C, read-out: MIC
# [35] = human, Strep. agalactiae 2788-B, 18 hours at 37° C, read-out: MIC
# [36] = human, Strep. pyogenes R80/421-A, 18 hours at 37° C, read-out: MIC
# [37] = NCTC10662, human, Ps. aeruginosa NCTC 10662, 18 hours at 37° C, read-out: MIC
# [38] = human, Corynebacterium xerosis 9755, 18 hours at 37° C, read-out: MIC
# [39] = human, K. aerogenes A, 18 hours at 37° C, read-out: MIC
# [40] = Proteus mirabilis, human, P. mirabilis 889, 18 hours at 37° C, read-out: MIC
# [41] = Micrococcus luteus, human, Sarcina lutea 8340, 18 hours at 37° C, read-out: MIC
# [42] = human, Strep. faecalis I, 18 hours at 37° C, read-out: MIC
# [43] = NCTC10418, human, E. coli NCTC 10418, 18 hours at 37° C, read-out: MIC
SMILES,MIC [2] [µg/mL],MIC [4] [µg/mL],MIC [5] [µg/mL],MIC [6] [µg/mL],MIC [7] [µg/mL],MIC [8] [µg/mL],MIC [9] [µg/mL],MIC [11] [µg/mL],MIC [13] [µg/mL],MIC [14] [µg/mL],MIC [15] [µg/mL],MIC [22] [µg/mL],MIC [24] [µg/mL],MIC [25] [µg/mL],MIC [26] [µg/mL],MIC [27] [µg/mL],MIC [29] [µg/mL],MIC [30] [µg/mL],MIC [31] [µg/mL],MIC [32] [µg/mL],other results
"CC(=Cc1nnc(-c2ccccc2)o1)CC1OCC(CC2OC2C(C)C(C)O)C(O)C1O (stereo not drawn) [Example 1, 2-(1-Normon-2-yl)-5-phenyl-1,3,4-oxadiazole A]",> 80,> 80,> 80,40,5,2.5,25,2.5,5,25,2.5,25,10,10,5,80,5,0.05,1,> 80,"MIC [1]: 40 µg/mL; MIC [3]: 5 µg/mL; MIC ([10]; 2788B, 18 h): 100 µg/mL; MIC ([12]; R80/421A, 18 h): 100 µg/mL; MIC ([16]; NCTC10662, 18 h): > 100 µg/mL; MIC ([17]; Corynebacterium xerosis, 9755, 18 h): > 100 µg/mL; MIC ([18]; 18 h): > 100 µg/mL; MIC ([19]; Proteus mirabilis, 889, 18 h): > 100 µg/mL; MIC ([20]; Micrococcus luteus, 8340, 18 h): > 100 µg/mL; MIC ([21]; 18 h): > 100 µg/mL; MIC ([23]; NCTC10418, 18 h): > 100 µg/mL; MIC [28, 34]: 5 µg/mL; MIC [33]: 5 µg/mL"
"CSc1ccc(-c2nnc(C=C(C)CC3OCC(CC4OC4C(C)C(C)O)C(O)C3O)o2)cc1 (stereo not drawn) [Example 3, 2-p-Methylthiophenyl-5-(1-normon-2-yl)-1,3,4-oxadiazole A]",> 80,> 80,> 80,5,2.5,1,8,2,4,16,8,8,8,4,2.5,40,1,0.1,2.5,> 80,"MIC [1]: 10 µg/mL; MIC [10, 35]: 32 µg/mL; MIC [12, 36]: 16 µg/mL; MIC [16, 37]: > 128 µg/mL; MIC [17, 38]: > 128 µg/mL; MIC [18, 39]: > 128 µg/mL; MIC [19, 40]: > 128 µg/mL; MIC [20, 41]: > 128 µg/mL; MIC [21, 42]: > 128 µg/mL; MIC [23, 43]: > 128 µg/mL; MIC [28]: 1 µg/mL; MIC [33]: 2.5 µg/mL"
"CC(=Cc1nnnn1CCCCCCCCC(=O)O)CC1OCC(CC2OC2C(C)C(C)O)C(O)C1O (stereo not drawn) [Example 14, Sodium 1-(8-carboxylatooctyl)-5-(1-normon-2-yl)-1H-tetrazole A]",> 80,> 80,> 80,> 80,> 80,> 10,> 128,128,> 128,> 128,64,> 128,> 128,> 128,> 10,> 80,> 10,5,> 10,> 80,"MIC [1]: > 80 µg/mL; MIC [3]: > 10 µg/mL; MIC [10, 35]: > 128 µg/mL; MIC [12, 36]: > 128 µg/mL; MIC [16, 37]: > 128 µg/mL; MIC [17, 38]: > 128 µg/mL; MIC [18, 39]: > 128 µg/mL; MIC [19, 40]: > 128 µg/mL; MIC [21, 42]: > 128 µg/mL; MIC [23, 43]: > 128 µg/mL; MIC [28, 34]: > 10 µg/mL; MIC [33]: > 80 µg/mL"
"CC(=Cc1nc(-c2ccccc2)no1)CC1OCC(CC2OC2C(C)C(C)O)C(O)C1O (stereo not drawn) [Example 15, 5-(1-Normon-2-yl)-3-phenyl-1,2,4-oxadiazole A]",> 80,> 80,> 80,80,2.5,5,32,4,32,64,64,32,16,8,10,40,10,0.1,10,> 80,"MIC [3]: 10 µg/mL; MIC [10, 35]: 64 µg/mL; MIC [12, 36]: 32 µg/mL; MIC [16, 37]: > 128 µg/mL; MIC [17, 38]: > 128 µg/mL; MIC [18, 39]: > 128 µg/mL; MIC [19, 40]: > 128 µg/mL; MIC [20, 41]: > 128 µg/mL; MIC [21, 42]: > 128 µg/mL; MIC [23, 43]: > 128 µg/mL; MIC [28, 34]: 10 µg/mL; MIC [33]: 5 µg/mL"

# From patent publication US4861788A, “Antibacterial 1-normon-2-yl-heterocyclic compounds” (Beecham Group plc, priority 1983, dated 1989)
